Measured values reported in patent US20240400536A1, “IDEBENONE DERIVATIVES AND THEIR USE IN TREATING PLANTS” (MITORX THERAPEUTICS LIMITED, priority 2021, published 2024).
pIC50: −log10 of the molar value. One block for each compound: values may come before it.

Assays:
C. elegans = assay: Worm screening: mitochondrial network imaging in ageing C. elegans; format: in vivo; conditions: for reduction of networked mitochondria caused by aging: FIG. 2; for damage caused to mitochondrial network in aging: FIG. 3
Description: C. elegans strains were cultured at 20° C. on Petri dishes containing nematode growth medium (NGM) agar and a lawn of Escherichia coli OP50, unless stated otherwise. Animals for the study were age-synchronized by gravity synchronization from the L1 stage and allowed to grow to the desired day of adulthood. The C. elegans strains used in this study were Bristol strain N2 (WT) provided by the Caenorhabditis Genetics Center.
Mitochondrial imaging was used in day 1 adults, with or without treatment, to examine the mitochondrial network. Worms were cultured on test compounds as described. Approximately 20 day 1 adults were picked into 20 μL of M9 buffer on a microscope slide with a coverslip applied. Worms were imaged at 40× magnification using a Nikon Eclipse 50i microscope. The protocol used was as described by Oh and Kim. Briefly animals were assessed at day 4 and day 8 of adulthood, where the number of dead muscle cells was determined by quantifying the number of muscle cells that had lost their distinct circular nuclear GFP signal. Approximately 30 animals were picked into 20 μL of M9 buffer on a microscope slide with a coverslip applied. Worms were imaged at 10× magnification by using a Nikon Eclipse 50i microscope.

[1] = tested on: senescent primary human lung fibroblasts; assay: Cellular bioenergetics (Seahorse OCR) in senescent primary human lung fibroblasts; format: cell-based; conditions: FIG. 4; compounds 0-300 nM; compared to the control (SIP cells without compound)
Description: Human primary lung fibroblasts were isolated from healthy volunteers and cultured in DMEM supplemented with 10% fetal calf serum and 1% pen/strep and […] L-glutamine, at 37° C., 5% CO2. To induce senescence, cells were seeded at a density of 50,000 cells per well in 250 μl of cell culture media onto Seahorse V7 plates and treated daily with fresh cell culture media containing […] H2O2 for 5 days, cells were then cultured with normal medium for a further 9 days. Senescence was confirmed by microscopy and staining for the senescence marker, senescence-associated-β-galactosidase (SA-βgal; Cell Signalling kit #9860). Cells were then treated with compounds (0-300 nM) for a further 24 h (controls are *SIP cells without compounds) and after this time, cellular bioenergetics determined using a Seahorse XFe24 extracellular flux analyser performed as described below. * SIP-senescence-induced phenotype
For the mitochondrial stress and glycolytic stress tests (Agilent, UK)Seahorse XFe24 sensor cartridges were hydrated with Seahorse XF calibrant solution and maintained at 37° C. in a non-CO2 incubator overnight. […] After incubation, plates were loaded onto Seahorse XFe24 Analyser and basal oxygen consumption rate (OCR) measured for 3 cycles. […] Extracellular acidification rate (ECAR) and Oxygen consumption rate (OCR) were measured for 3 baseline cycles and injection strategy initiated. […]

b.End3 cells [2] = assay: Hyperglycaemia-induced mitochondrial dysfunction: mitochondrial membrane potential restore; format: cell-based; conditions: compound added on day 8 for two days
Description: Moreover, in cardiovascular diseases such as hypertension and diabetes a loss of endothelial function and cell death were observed [Poredos et al, 2021].
In order to induce hyperglycemia in b.End3 cells, a literature reported protocol Lorenzi et al 1985; Qu et al 2014] was followed. After trypsinisation, cells were diluted with supplemented DMEM (approximately 2 ml per flask) and consequently, cells from 3 or 4 different flasks were transferred in a 15 ml sterile conical centrifuge tube and centrifuged for 5 minutes, in order to separate the cells from the medium. Following that, the supernatant medium was removed and the cells were gently re-suspended and mixed with approximately 4 ml of fresh supplemented DMEM. 20 μl of this solution was added to 40 μl of trypan blue and 10 μl of the final solution was loaded onto a cell counting slide dual-chamber. Trypan blue allows to distinguish between live and dead cells. Indeed it is impermeable in live cells, while it is absorbed by dead cells. The number of cells per ml was measured using an automated cell counter. Commonly, the value found was […] and consequently, the cell solution was diluted, in order to obtain a concentration of 20,000 cells/well in the minimum volume necessary to fill a 96-well plate (200 μl/well, ≈13 ml for one plate, since the two external columns and rows were loaded with cell-free medium because they are susceptible to evaporation thus, the cell medium in these wells prevented the external cell-containing wells from evaporating). Cells were cultured overnight in a humidified incubator, in order to allow them to attach to the plate surface. Afterwards, the medium was removed (a part of the plate was kept with normal glucose DMEM as a […]) and supplemented high-glucose DMEM was added. Cells were cultured for 8 days since, in previous studies, it was determined that this is the minimum amount of time required to induce extensive mitochondrial dysfunction, such as excessive oxidant production and mitochondrial membrane hyperpolarisation Lorenzi et al 1985; Qu et al 2014]
On day 8, 10 μl/well (1/20 dilution factor) of a solution of an H2S donor or of a control compound or a PBS vehicle solution (with calcium and magnesium salts and 10% DMSO) was administered to cells. The final concentration of DMSO in cells was 0.5%: higher DMSO doses may be toxic for the cells. The cells were incubated for a further two days in the presence of the compound and after ten days of hyperglycaemia exposure, the amount of mitochondrial oxidant and mitochondrial membrane hyperpolarisation were determined. Noticeably in this procedure, in order to evaluate the cytoprotective activity of the novel compounds, the drugs were added only after the mitochondrial dysfunction in cells had already occurred. The protocol described is summarised in the scheme below:
On day 0, cells (20,000 cell/ml) were plated in a 96-well plate. Cells were cultured overnight at 37° C. On day 1, supplemented DMEM was removed and high-glucose supplemented DMEM was added. On day 8, an H2S donor compound (Examples 1-7), a control compound or altematively a vehicle solution was added to cells. On day 10, mitochondrial dysfunction were determined Lorenzi et al 1985; Qu et al 2014].

endothelial cells = conditions: cited from earlier work
b.End3 cells [3] = assay: Toxicity (TC50); format: cell-based
[4] = cited from earlier work
b.End3 cells [5] = assay: Hyperglycaemia-induced mitochondrial dysfunction: mitochondrial superoxide (ROS) production, Mitosox Red; format: cell-based; conditions: 10 days hyperglycaemia, compound added on day 8 for two days
Description: In order to induce hyperglycemia in b.End3 cells, a literature reported protocol Lorenzi et al 1985; Qu et al 2014] was followed. After trypsinisation, cells were diluted with supplemented DMEM (approximately 2 ml per flask) and consequently, cells from 3 or 4 different flasks were transferred in a 15 ml sterile conical centrifuge tube and centrifuged for 5 minutes, in order to separate the cells from the medium. Following that, the supernatant medium was removed and the cells were gently re-suspended and mixed with approximately 4 ml of fresh supplemented DMEM. 20 μl of this solution was added to 40 μl of trypan blue and 10 μl of the final solution was loaded onto a cell counting slide dual-chamber. Trypan blue allows to distinguish between live and dead cells. Indeed it is impermeable in live cells, while it is absorbed by dead cells. The number of cells per ml was measured using an automated cell counter. […] Cells were cultured for 8 days since, in previous studies, it was determined that this is the minimum amount of time required to induce extensive mitochondrial dysfunction, such as excessive oxidant production and mitochondrial membrane hyperpolarisation Lorenzi et al 1985; Qu et al 2014]
On day 8, 10 μl/well (1/20 dilution factor) of a solution of an H2S donor or of a control compound or a PBS vehicle solution (with calcium and magnesium salts and 10% DMSO) was administered to cells. […] The cells were incubated for a further two days in the presence of the compound and after ten days of hyperglycaemia exposure, the amount of mitochondrial oxidant and mitochondrial membrane hyperpolarisation were determined. […]
On day 0, cells (20,000 cell/ml) were plated in a 96-well plate. […] On day 10, mitochondrial dysfunction were determined Lorenzi et al 1985; Qu et al 2014]. […]

Toxicity (TC50) = format: cell-based; conditions: mouse, b.End3 cells

Compound: COC1=C(OC)C(=O)C(CCCCCCCCCCO)=C(C)C1=O [idebenone]
reduction of networked mitochondria caused by aging (C. elegans): not
damage caused to mitochondrial network in aging (C. elegans): not

Compound: CC1=C(CCCCCCCCCC(=O)Nc2ccc(C(N)=S)cc2)C(=O)c2ccccc2C1=O [Example 17, N-(4-carbamothioylphenyl)-10-(3-methyl-1,4-dioxo-1,4-dihydronaphthalen-2-yl)decanamide]
dysfunction of the mitochondria (loss of OCR) in senescent cells [1]: reversed

pIC50 (b.End3 cells [2]; 10 days hyperglycaemia): 8.40
Compound: O=C(CCCCCCCCC[P+](c1ccccc1)(c1ccccc1)c1ccccc1)Oc1ccc(-c2cc(=S)ss2)cc1.[Br-] [AP39]
ATP production (endothelial cells; endothelial cells): increase
protein persulfidation (endothelial cells; inside the mitochondria): increase
intracellular levels of H2S (endothelial cells; mainly inside the mitochondria, concentration-dependent): increase
CC50 (b.End3 cells [3]): 8000 nM
aqueous solubility [4]: poor
IC25 (Mitochondrial ROS level restore) (b.End3 cells [5]): 10 nM

Compound: Oc1ccc(-c2cc(=S)ss2)cc1 [ADTOH, 5-(4-hydroxyphenyl) -3H-1,2-dithiole-3-thione]
reduction of networked mitochondria caused by aging (C. elegans): not
damage caused to mitochondrial network in aging (C. elegans): not

Compound: 4-(3-sulfanylidene-3H-1,2- dithiol-5-yl)phenyl) 10-(4,5-dimethoxy-2- methyl-2,6-dioxocyclohexa- 1,4-dien-1-yl)decanoate [Example 2]
pIC50 (b.End3 cells [2]; 10 days hyperglycaemia): 8.22
CC50 (b.End3 cells [3]): 130000 nM
fragmentation of the mitochondrial network caused by ageing (C. elegans; FIG. 1): inhibited
reduction of networked mitochondria caused by aging (C. elegans): preserved
damage caused to mitochondrial network in aging (C. elegans): can be inhibited
IC25 (Mitochondrial ROS level restore) (b.End3 cells [5]): 10 nM

pIC50 (b.End3 cells [2]; BEND3, 10 days hyperglycaemia): 9.00
Compound: COC1=C(OC)C(=O)C(CCCCCCCCCC(=O)Oc2ccc(C(N)=S)cc2)=C(C)C1=O [Example 4, 4-carbamothioylphenyl 10-(4,5-dimethoxy-2-methyl-3,6-dioxocyclohexa-1,4-dien-1-yl)decanoate]
CC50 (Toxicity (TC50)): 100000 nM

pIC50 (b.End3 cells [2]; BEND3, 10 days hyperglycaemia): 8.30
Compound: COC1=C(OC)C(=O)C(CCCCCCCCCC(=O)Oc2ccc(-c3cc(=O)ss3)cc2)=C(C)C1=O [Example 3, 4-(3-oxo-3H-1,2-dithiol-5-yl)phenyl 10-(4,5-dimethoxy-2-methyl-3,6-dioxocyclohexa-1,4-dien-1-yl)decanonate]
CC50 (Toxicity (TC50)): 76000 nM

pIC50 (b.End3 cells [2]; BEND3, 10 days hyperglycaemia): 9.40
Compound: COC1=C(OC)C(=O)C(CCCCCCCCCCOC(=O)COc2ccc(-c3cc(=S)ss3)cc2)=C(C)C1=O [Example 1, 10-(4,5-dimethoxy-2-methyl-3,6-dioxocyclohexa-1,4-dien-1-yl)decyl 2-[4-(3-sulfanylidene-3H-1,2-dithiol-5-yl)phenoxy]acetate]
CC50 (Toxicity (TC50)): 147000 nM
IC25 (Mitochondrial ROS level restore) (b.End3 cells [5]): 6.5 nM
